Key:
[1] = test system: platelet aggregation; conditions: high concentrations, several literature studies; cited from earlier work
[2] = test system: platelets; test: Platelet function / platelet activation, overall conclusion of the study; assay type: cell-based, human; conditions: individually at 5 μmol of quercetin/L or 20 μmol of catechin/L (so in the source)
[3] = test system: platelets; test: Platelet adhesion to collagen ([3H]oleic acid-labelled platelets); assay type: cell-based, human; conditions: 50 μmol of collagen/L [sic]
Description: The activation of platelets by collagen is a multistage process. Thus, after being attached initially to the platelets via the pathways of the second messenger, collagen stimulates the release of thromboxane and ADP, which are important platelet agonists that induce aggregation. To study the adhesion of the platelets to collagen (50 mg/L) without the interference of aggregation and of the activation induced by all the known agonists released by the platelet granules on stimulation by collagen, the platelets were subjected to preincubation with aspirin, a cyclooxygenase inhibitor, with the ADP removal system phosphocreatine and creatine kinase, and with the fibrinogen-fibronectin antagonist RDGS (13).

[4] = test system: phospholipase C; test: Activation of phospholipase C: IP3 production in collagen-stimulated platelets; conditions: for decrease in IP3 production: 10 mg of collagen/L; for production of [32P]IP3 in platelets stimulated by collagen: catechin or quercetin alone
Description: Drug-free human blood obtained from healthy volunteers was coagulated with acid:citrate:dextrose. Platelet-rich plasma was centrifuged at 800×g for 20 min at room temperature and the pellet was suspended in a volume equal to half the initial volume of autologous plasma, low in platelets. The platelet suspensions were incubated for 1 h at 37° C. with 3 μmol of Fura 2/AM per L, 40 μmol DCFH-DA/L, 7.4 GBq (2 Ci) ^32Pi/L, or 3.7 MBq (1 mCi) [^3H]oleic acid/L. The platelets were washed by exclusion chromatography on Sepharose 2B using a Ca^2+-free Tyrodes buffer (134 mmol NaCl/L, 2.9 mmol KCl/L, 0.34 mmol Na2HPO4/L and 2 mmol MgCl2/L) containing 0.2% of bovine serum albumin, 5 mmol glucose/L and 10 mmol HEPES/L, pH 7.35.
The production of 1,3,4-inositol triphosphate (IP3, an indicator of activation of phospholipase C, was analysed 30 s after platelet activation according to Pulcinelli et al. J. Chromatogr. 1992,575:51-5. The collagen was used at a concentration of 10 mg/L, which was the lowest concentration capable of inducing a reproducible response. The platelet suspensions identified with [^3H]oleic acid were used for evaluating platelet adhesion to collagen (50 mg/L) according to Smith and Dangelmaier.

[5] = test system: platelets; test: Production of hydrogen peroxide in DCFH-DA-loaded platelets stimulated with collagen (flow cytometry); assay type: cell-based, human; conditions: for production of hydrogen peroxide caused by collagen: catechin or quercetin alone, scalar concentrations (Cat 50 and 100, Q 10 and 20 μmol/L), 10 and 20 mg of collagen/L; for formation of hydrogen peroxide caused by collagen: each compound alone at the low quantities (catechin 25 μmol/L; quercetin 5 μmol/L)
Description: (§1) DCFH-DA was added to the PSEC (final concentration: 40 μmol/L); after 15 minutes of incubation with or without catechin or quercetin, the PSEC were activated with collagen. The reaction was stopped with 2 mmol EGTA/L after 1 min. The samples were analysed in a Coulter XL-MCL flow cytometer (Hialeah, Fla.) equipped with an argon laser (emission 480 nm) set up for measuring the logarithmic diffusion of direct light, which is a measure of the dimensions of the particle; logarithmic diffusion of light at 90°, which is a measure of the granularity of the cell; and green fluorescence (DCF) 510-550 nm. The fluorescence signal generated by the probe was expressed as the stimulation index, i.e. intensity of mean channel fluorescence of the stimulated platelets/intensity of mean channel fluorescence of the unstimulated platelets. Platelet aggregation in vitro was evaluated according to Born. The collagen was used at concentrations of 2-4 mg/L.
Flow cytometry makes use of the properties of DCFH-DA, which diffuses rapidly through the cellular membranes and is then trapped inside the cell through a reaction of deacetylation. In the presence of hydrogen peroxide, this compound is oxidized to dichlorofluorescein (DCF), which is highly fluorescent.

[6] = test system: platelets; test: Platelet aggregation in vitro caused by collagen (according to Born); assay type: cell-based, human; conditions: for influence on platelet aggregation: 25 μmol of catechin/L or 5 μmol of quercetin/L used on their own; for platelet aggregation caused by collagen: catechin or quercetin alone, two concentrations of collagen (2 and 4 mg/L)
Description: as §1, with “The reaction was stopped with 2 mmol EGTA/L after 1 min.” left out

[7] = test system: platelets; test: Cytosol platelet Ca2+ concentration / calcium mobilization (Fura 2) after collagen; assay type: cell-based, human; conditions: for decrease in calcium mobilization: 4 mg of collagen/L; for mobilization of calcium (percentage change in intracellular calcium concentration): catechin or quercetin alone
Description: The concentrations of cytosol platelet Ca^2+ were measured using the fluorescent indicator dye Fura 2, according to Grynkiewicz et al.; the changes in fluorescence were then monitored with a fluorimeter SFM 25 (Kontron, Zurich, Switzerland) set at emission wavelength of 510 nm and excitation wavelength of 340 nm.

[8] = 100 μmol catechin/L or 20 μmol quercetin/L
[9] = catechin (50 and 100 μmol/L) or quercetin (10 and 20 μmol/L) on their own

Question: Which “platelet aggregation in vitro” value [1] does the source give for `Oc1ccc(C=Cc2cc(O)cc(O)c2)cc1` [resveratrol] here?
Answer: inhibit platelet aggregation

Question: Which results are given for catechin?
Answer: effect on platelet function [2]: no effect on platelet function; platelet adhesion to collagen [3, 8]: suppressed significantly; platelet adhesion to collagen [3, 9]: inhibited platelet adhesion to collagen; decrease in IP3 production ([4]; 100 μmol of catechin/L): 50%; production of [32P]IP3 in platelets stimulated by collagen [4]: inhibited; production of hydrogen peroxide caused by collagen [5]: inhibited the production of hydrogen peroxide; formation of hydrogen peroxide caused by collagen [5]: neither of the two compounds alone at such low quantities is reported to have had any inhibitory effect; platelet aggregation in vitro [1]: inhibit platelet aggregation; influence on platelet aggregation [6]: no influence on platelet aggregation; inhibition of platelet aggregation ([6]; 100 μmol of catechin/L, 2 mg of collagen/L): ≈ 75%; inhibition of platelet aggregation ([6]; 100 μmol of catechin/L, 4 mg of collagen/L): ≈ 39%; platelet aggregation caused by collagen [6]: inhibited platelet aggregation; decrease in calcium mobilization ([7]; 100 μmol of catechin/L): 71%; mobilization of calcium (percentage change in intracellular calcium concentration) [7]: inhibited the mobilization of calcium

Question: With `O=c1c(O)c(-c2ccc(O)c(O)c2)oc2cc(O)cc(O)c12` [quercetin] as the compound, how does the “effect on platelet function” value [2] read?
Answer: no effect on platelet function

Question: And the “platelet adhesion to collagen” value [3, 8]?
Answer: suppressed significantly

Question: What about the “platelet adhesion to collagen” value [3, 9] of the same compound?
Answer: inhibited platelet adhesion to collagen

Question: And the “decrease in IP3 production” value ([4]; 20 μmol of quercetin/L)?
Answer: 93%

Question: What about the “production of [32P]IP3 in platelets stimulated by collagen” value [4] of the same compound?
Answer: inhibited

Question: And the “production of hydrogen peroxide caused by collagen” value [5]?
Answer: inhibited the production of hydrogen peroxide

Question: And the “formation of hydrogen peroxide caused by collagen” value [5]?
Answer: neither of the two compounds alone at such low quantities is reported to have had any inhibitory effect

Question: And the “platelet aggregation in vitro” value [1]?
Answer: inhibit platelet aggregation

Question: And the “inhibition of platelet aggregation” value ([6]; 20 μmol of quercetin/L, 2 mg/L collagen)?
Answer: 50%

Question: What about the “inhibition of platelet aggregation” value ([6]; 20 μmol of quercetin/L, 4 mg/L collagen) of the same compound?
Answer: 43%

Question: What about the “influence on platelet aggregation” value [6] of the same compound?
Answer: no influence on platelet aggregation

Question: What about the “platelet aggregation caused by collagen” value [6] of the same compound?
Answer: inhibited platelet aggregation

Question: What about the “decrease in calcium mobilization” value ([7]; 20 μmol of quercetin/L) of the same compound?
Answer: 65%

Question: What about the “mobilization of calcium (percentage change in intracellular calcium concentration)” value [7] of the same compound?
Answer: inhibited the mobilization of calcium

From US7956040B2, “Combination of catechin and quercetin for pharmaceutical or dietary use” (Giuliani International Limited, priority 2000, dated 2011)
